# Data published in paper PMC10819565, “Effects of H2-Receptor Antagonists on the Exposure of Dacomitinib” (Pharmaceutics, 2024).
# Like-named read-outs stand apart in the source and are kept apart here.
# Key:
# [1] = design: method as in ref 26 = [26]; 26. US Food and Drug Administration (FDA) VIZIMPRO ® (Dacomitinib) Review Available online: https://www.accessdata.fda.gov/drugsatfda_docs/nda/2018/211288Orig1s000ChemR.pdf (accessed on 6 November 202); details: base; cited from earlier work
# [2] = Disposition PK parameters fitted to intravenous data from the absolute bioavailability study in healthy volunteers; type: in vivo, human; details: automatic estimation using PK Plus based on IV data from clinical study
# Text: (§1) PBPK modeling was used to evaluate the effect of changes in gastric pH on dacomitinib absorption. With physicochemical properties (e.g., Log P, pKa, mean precipitation time) and solubility data at different pH for dacomitinib, a two-compartment model coupled to the ACAT model was built using Gastroplus^TM version 9.7 (Simulation Plus, Inc., Lancaster, CA, USA) with default fasted gut physiology. Disposition PK parameters for dacomitinib were derived by initially fitting the PK data after intravenous (IV) administration from a study where the absolute bioavailability of dacomitinib was estimated by comparing oral to intravenous administration of dacomitinib in healthy volunteers.
# [3] = healthy volunteers, cited from earlier work; for AUCinf Observed / Cmax Observed: 45 mg oral
# [4] = design: method as in ref 26 = [26]; 26. US Food and Drug Administration (FDA) VIZIMPRO ® (Dacomitinib) Review Available online: https://www.accessdata.fda.gov/drugsatfda_docs/nda/2018/211288Orig1s000ChemR.pdf (accessed on 6 November 202); details: cited from earlier work
# [5] = Oral absorption PBPK model (GastroPlus ACAT) simulations and gastric pH parameter sensitivity analysis; design: species or system human; details: 45 mg oral
# Text: as §1
# The model that utilized the default physiological conditions of Gastroplus was used to simulate the plasma profiles for a 45 mg oral dose in healthy volunteers from the same study. […] The modified model was developed by optimizing the absorption scale factor (ASF) model based on the clinical PK data to reflect the prolonged Tmax of the plasma profile since all the systemic PK parameters were fixed after fitting the IV profile.
# The model was validated using the mean plasma profiles of dacomitinib under 3 different conditions or treatments (fasted, fed, and PPI treatment using rabeprazole 40 mg administered QD for 7 days) following oral administration of a 45 mg dose in a clinical study in healthy volunteers to evaluate the food effect and effect of PPIs. In this study, PK samples were collected at the same nominal times of 0, 1, 2, 4, 6, 8, 12, 24, 48, 72, 96, 120, 144, 168, 192, 216 and 264 h post-dose. The mean plasma drug concentration–time profile of dacomitinib was obtained for each condition, namely fasted, fed and PPI treatment, and respective exposure parameters (Cmax and AUCinf) were derived from Gastroplus. The simulation was conducted using Gastroplus with the default physiological conditions of fasted or fed and by setting the gastric pH in the model to 6.0. This allowed for the simulation of the situations corresponding to fasted, fed and PPI treatment, respectively.
# The gastric pH in the PBPK model was manipulated to enable the evaluation of a range of pH values from 1.0 to 6.0 during pharmacokinetic (PK) simulations. Parameter sensitivity analyses (PSAs) were performed on the PBPK model to assess the impact of pH variations from 1.0 to 5.0, which mimicked the effect of H2RAs on the absorption of dacomitinib.
# [6] = Within-patient comparison of steady-state trough concentrations (Ctrough,ss) with and without concomitant H2RA, pooled data from 11 clinical studies; type: in vivo, human; details: for Ctrough,ss Geometric Mean (Geometric CV%), Test / Ctrough,ss Geometric Mean (Geometric CV%), Reference: patients, dose normalized to 45 mg QD; for Ctrough,ss Geometric Mean (Geometric CV%), Test: dacomitinib co-administered with H2RA (at least 3 days); for Ctrough,ss Geometric Mean (Geometric CV%), Reference: dacomitinib without H2RA
# Description: This analysis included data from 11 clinical studies. Patients in these studies who received continuous oral dosing schedule of dacomitinib at dose levels of 45 mg once daily (QD), 30 mg QD, 15 mg QD and 60 mg QD, with a cycle duration of 28 days, are included in the analysis dataset. All trials were conducted in accordance with the International Council on Harmonization Good Clinical Practice guidelines and the provisions of the Declaration of Helsinki. The institutional review board or independent ethics committee at each participating center approved the protocol. All patients provided written informed consent before enrollment.
# Patients in the 11 studies who received continuous oral dosing schedule of dacomitinib at dose levels of 45 mg once daily (QD), 30 mg QD, 15 mg QD and 60 mg QD, with a cycle duration of 28 days, are included in the analysis dataset. […] PF-05199265 has been identified to have an inhibitory and selectivity profile similar to the parent molecule. For each patient, steady-state trough concentrations (Ctrough,ss) were defined as an observed concentration collected at the nominal predose (0 h) time point on Day 1 of Cycle 2 through Cycle 10 with at least 14 days of continuous dacomitinib dosing at one dose level. Ctrough,ss were dose normalized to 45 mg, calculated as Ctrough,ss times 45 mg/dose for the analysis and reporting.
# The Ctrough,ss values were used to represent steady-state exposure in patients following administration of 45 mg QD dacomitinib.
# The Ctrough,ss collected prior to any reported H2RA use or at least 14 days after the last reported date of H2RA use served as the dacomitinib without H2RA reference. Dacomitinib co-administered with H2RA as the comparator was defined as Ctrough,ss collected after the use of any reported H2RA continuously for at least 3 days. The H2RAs reported in these studies included cimetidine, famotidine, nizatidine and ranitidine.
# [7] = design: method as in ref 26 = [26]; 26. US Food and Drug Administration (FDA) VIZIMPRO ® (Dacomitinib) Review Available online: https://www.accessdata.fda.gov/drugsatfda_docs/nda/2018/211288Orig1s000ChemR.pdf (accessed on 6 November 202); details: cited from earlier work; remark: listed apart in the source
# [8] = design: method as in ref 2 = [2]; 2. US Food and Drug Administration (FDA) VIZIMPRO ® (Dacomitinib) Prescribing Information Available online: https://www.accessdata.fda.gov/drugsatfda_docs/label/2018/211288s000lbl.pdf (accessed on 6 N); details: with 20 mL locally acting antacid (Maalox Maximum Strength, 400 mg/5 mL); cited from earlier work
# [9] = co-administration with PPI (rabeprazole 40 mg QD for 7 days)
# [10] = single 45 mg dose after 7 days of rabeprazole 40 mg
compound,measurement,setting,value
COc1cc2ncnc(Nc3ccc(F)c(Cl)c3)c2cc1NC(=O)/C=C/CN1CCCCC1 [dacomitinib],pKa,[1],5.03 (base)
same,K12,[2],0.033 h⁻¹
same,K21,[2],0.038 h⁻¹
same,V2,[2],19.018 L/kg
same,Vc,[2],21.9 L/kg
same,clearance,"[2]; human, plasma, two-compartment model, healthy volunteers",602 mL/min
same,AUCinf Observed,[3]; [9],715.96 ng·h/mL
same,Cmax Observed,[3]; [9],9.125 ng/mL
same,AUCinf Observed,[3]; fasted state,1171 ng·h/mL
same,Cmax Observed,[3]; fasted state,18.41 ng/mL
same,AUCinf Observed,[3]; fed state,1163 ng·h/mL
same,Cmax Observed,[3]; fed state,21.35 ng/mL
same,decrease of AUC,[3]; co-administration with multiple doses of rabeprazole (a PPI),39%
same,reduction of AUC0-96,[3]; [10],39%
same,reduction of Cmax,[3]; [10],51%
same,Solubility,[4]; pH 1.28,10000 µg/mL
same,Solubility,[4]; pH 4.71,3700 µg/mL
same,Solubility,[4]; pH 5.09,340 µg/mL
same,Solubility,[4]; pH 5.17,230 µg/mL
same,Solubility,[4]; pH 5.3,160 µg/mL
same,Solubility,[4]; pH 6.13,6 µg/mL
same,Solubility,[4]; pH 6.94,1 µg/mL
same,Ratio of AUCinf (predicted-to-observed),[5]; co-administration with PPI,0.857
same,Ratio of Cmax (predicted-to-observed),[5]; co-administration with PPI,0.940
same,Ratio of AUCinf (predicted-to-observed),[5]; fasted state,1.00
same,Ratio of Cmax (predicted-to-observed),[5]; fasted state,1.01
same,Ratio of AUCinf (predicted-to-observed),[5]; fed state,1.07
same,Ratio of Cmax (predicted-to-observed),[5]; fed state,0.952
same,"Ctrough,ss Geometric Mean (Geometric CV%), Test",[6],53.2 ng/mL
same,"Ctrough,ss Geometric Mean (Geometric CV%), Test",[6]; listed as Dacomitinib,53.2 (18.7) ng/mL
same,"Ctrough,ss Geometric Mean (Geometric CV%), Reference",[6],57.56 ng/mL
same,"Ctrough,ss Geometric Mean (Geometric CV%), Reference",[6]; listed as Dacomitinib,57.56 (8.4) ng/mL
same,"Ctrough,ss Geometric Mean Ratio test/reference (90% CI)","[6]; with H2RA vs without H2RA, adjusted, linear mixed effects model","85.88 (72.9, 101.11) %"
same,LogP,[7]; cationic,1.8
same,LogP,[7]; neutral,5.3
same,changes in dacomitinib concentrations,[8],did not cause clinically relevant changes
